Each block holds one compound with its values, some of them ahead of it. Calls of active or inactive are those of the source. The rule behind the calls is not given here.
What was measured:
[1] = target: Telomerase reverse transcriptase (Homo sapiens) (UniProt O14746); experiment: Inhibition of telomerase in human A549 cells at 25 uM after 24 hrs by TRAP assay; assay type: cell-based
[2] = tested on: A549; experiment: Reduction of colony formation in human A549 cells at 12.5 uM after 24 hrs by anchorage-independence cell growth assay relative to control; assay type: functional; design: scale not given: the % may be the effect or the level left
[3] = tested on: A549; experiment: Cytotoxicity against human A549 cells assessed as reduction of cell proliferation after 24 hrs by MTS assay; assay type: functional, cell-based
[4] = tested on: A549; experiment: Reduction of hTERT mRNA expression in human A549 cells after 6 hrs by RT-PCR analysis; assay type: functional, cell-based
[5] = tested on: A549; experiment: Reduction of hTR mRNA expression in human A549 cells at 20 uM after 6 hrs by RT-PCR analysis; assay type: functional, cell-based
[6] = tested on: A549; experiment: Reduction of hTERT protein expression in human A549 cells at 25 uM after 24 hrs by immunofluorescence assay in presence of intracellular calcium chelator BAPTA-AM pretreated for 1 hr; assay type: functional, cell-based
[7] = tested on: A549; experiment: Reduction of colony formation in human A549 cells at 6.25 uM after 24 hrs by anchorage-independence cell growth assay relative to control; assay type: functional; design: scale not given: the % may be the effect or the level left
[8] = tested on: A549; experiment: Translocation of hTERT from nuclei to cytoplasm in human A549 cells at 25 uM after 24 hrs by immunofluorescence assay; assay type: functional, cell-based
[9] = target: Telomerase reverse transcriptase (Homo sapiens) (UniProt O14746); experiment: Inhibition of telomerase in human A549 cells at 25 uM after 24 hrs by TRAP assay in presence of 20 nM of nuclear export inhibitor leptomycin B pretreated for 1 hr; assay type: cell-based
[10] = tested on: A549; experiment: Reduction of hTR mRNA expression in human A549 cells at up to 50 uM after 6 hrs by RT-PCR analysis; assay type: functional, cell-based
[11] = target: Telomerase reverse transcriptase (Homo sapiens) (UniProt O14746); experiment: Inhibition of telomerase in human A549 cells at 25 uM after 24 hrs by TRAP assay in presence of 50 uM of MAPK inhibitor SB-203580 pretreated for 1 hr; assay type: cell-based
[12] = tested on: A549; experiment: Reduction of hTERT mRNA expression in human A549 cells at 50 uM after 6 hrs by RT-PCR analysis; assay type: functional; design: scale not given: the % may be the effect or the level left
[13] = target: Telomerase reverse transcriptase (Homo sapiens) (UniProt O14746); experiment: Inhibition of telomerase in human A549 cells at 25 uM by TRAP assay; assay type: cell-based; conditions: TDE = time-dependent effect
[14] = tested on: A549; experiment: Reduction of colony formation in human A549 cells at 25 uM after 24 hrs by anchorage-independence cell growth assay relative to control; assay type: functional; design: scale not given: the % may be the effect or the level left
[15] = tested on: A549; experiment: Reduction of GADD153 mRNA expression in human A549 cells at up to 50 uM after 6 hrs by RT-PCR analysis; assay type: functional, cell-based
[16] = target: Telomerase reverse transcriptase (Homo sapiens) (UniProt O14746); experiment: Inhibition of telomerase in human A549 cells at 25 uM after 24 hrs by TRAP assay in presence of 20 uM of ERK inhibitor PD-98059 pretreated for 1 hr; assay type: cell-based
[17] = tested on: A549; experiment: Cytotoxicity against human A549 cells assessed as reduction of cell proliferation at 50 uM after 24 hrs by MTS assay; assay type: functional; design: scale not given: the % may be the effect or the level left
[18] = target: Telomerase reverse transcriptase (Homo sapiens) (UniProt O14746); experiment: Inhibition of telomerase in human A549 cells assessed as increase of intracellular calcium release after 24 hrs using Fluo-3 AM staining by microscopic analysis in presence of BAPTA-AM pretreated for 1 hr; assay type: cell-based
[19] = target: Telomerase reverse transcriptase (Homo sapiens) (UniProt O14746); experiment: Inhibition of telomerase in human A549 cells at 25 uM after 24 hrs by TRAP assay in presence of 50 uM of PI3 K inhibitor LY-294002 pretreated for 1 hr; assay type: cell-based
[20] = target: Telomerase reverse transcriptase (Homo sapiens) (UniProt O14746); experiment: Inhibition of telomerase in human A549 cells at 25 uM after 24 hrs by TRAP assay in presence of 20 uM of intracellular calcium chelator BAPTA-AM pretreated for 1 hr; assay type: cell-based
[21] = tested on: A549; experiment: Reduction of hTERT protein expression in human A549 cells at 25 uM after 24 hrs by immunofluorescence assay; assay type: functional, cell-based
[22] = target: Telomerase reverse transcriptase (Homo sapiens) (UniProt O14746); experiment: Inhibition of telomerase in human A549 cells at 25 uM after 24 hrs by TRAP assay in presence of 20 uM of 26S proteasome inhibitor MG132 pretreated for 1 hr; assay type: cell-based
[23] = target: Telomerase reverse transcriptase (Homo sapiens) (UniProt O14746); experiment: Inhibition of telomerase in human A549 cells at 25 uM after 24 hrs by TRAP assay in presence of 10 uM of MEK inhibitor U0126 pretreated for 1 hr; assay type: cell-based
[24] = target: Telomerase reverse transcriptase (Homo sapiens) (UniProt O14746); experiment: Inhibition of telomerase in human A549 cells after 24 hrs by TRAP assay; assay type: cell-based
[25] = target: Telomerase reverse transcriptase (Homo sapiens) (UniProt O14746); experiment: Inhibition of telomerase in human A549 cells assessed as increase of intracellular calcium release after 24 hrs using Fluo-3 AM staining by microscopic analysis; assay type: cell-based
[26] = tested on: A549; experiment: Reduction of hTERT protein expression in human A549 cells after 6 hrs by Western blotting; assay type: functional, cell-based
[27] = tested on: A549; experiment: Reduction of hTERT mRNA expression in human A549 cells after 6 hrs by RT-PCR analysis in presence of 20 uM of intracellular calcium chelator BAPTA-AM pretreated for 1 hr; assay type: functional, cell-based

Sequence of Telomerase reverse transcriptase (Homo sapiens) (O14746 whole entry): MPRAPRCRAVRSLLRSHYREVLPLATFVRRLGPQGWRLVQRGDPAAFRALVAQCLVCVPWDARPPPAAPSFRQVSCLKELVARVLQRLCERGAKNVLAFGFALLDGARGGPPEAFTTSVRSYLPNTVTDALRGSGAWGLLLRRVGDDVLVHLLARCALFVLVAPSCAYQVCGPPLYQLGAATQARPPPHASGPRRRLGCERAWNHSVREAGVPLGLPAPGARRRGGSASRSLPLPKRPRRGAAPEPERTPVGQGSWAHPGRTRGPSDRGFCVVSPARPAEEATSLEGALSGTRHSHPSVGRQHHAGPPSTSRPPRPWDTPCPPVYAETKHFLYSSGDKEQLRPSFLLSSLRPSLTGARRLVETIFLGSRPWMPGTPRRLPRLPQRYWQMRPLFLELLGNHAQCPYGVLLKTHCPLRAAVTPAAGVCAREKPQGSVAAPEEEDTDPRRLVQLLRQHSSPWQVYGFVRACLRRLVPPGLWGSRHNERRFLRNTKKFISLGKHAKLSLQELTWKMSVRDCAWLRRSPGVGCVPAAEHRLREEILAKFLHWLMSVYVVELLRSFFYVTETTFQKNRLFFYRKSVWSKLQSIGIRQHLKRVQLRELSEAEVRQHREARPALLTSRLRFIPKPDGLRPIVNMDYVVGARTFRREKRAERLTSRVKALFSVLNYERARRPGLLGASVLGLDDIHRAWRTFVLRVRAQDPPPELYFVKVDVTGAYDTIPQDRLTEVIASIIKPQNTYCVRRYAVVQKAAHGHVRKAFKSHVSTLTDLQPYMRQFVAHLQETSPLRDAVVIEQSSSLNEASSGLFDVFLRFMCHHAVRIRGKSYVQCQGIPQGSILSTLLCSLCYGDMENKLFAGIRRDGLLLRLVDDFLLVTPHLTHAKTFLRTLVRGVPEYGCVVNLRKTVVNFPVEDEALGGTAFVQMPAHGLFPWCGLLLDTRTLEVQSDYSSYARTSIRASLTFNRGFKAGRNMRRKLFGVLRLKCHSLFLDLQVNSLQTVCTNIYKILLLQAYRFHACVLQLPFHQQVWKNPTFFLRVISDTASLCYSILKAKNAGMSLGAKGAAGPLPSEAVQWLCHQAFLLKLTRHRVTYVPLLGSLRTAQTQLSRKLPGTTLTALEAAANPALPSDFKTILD

- inhibition [1]: inactive
SMILES: COc1cc(C(=O)/C=C/c2ccc(N(C)C)cc2)cc(OC)c1OC

- inhibition [9]: Active
- inhibition [11]: Active
- inhibition [13]: tde
- inhibition [16]: Active
- inhibition [18]: inactive
- inhibition [19]: Active
- inhibition [20]: inactive
- inhibition [22]: Active
- inhibition [1]: Active
- inhibition [23]: Active
- inhibition [24]: Dose-dependent effect
- inhibition [25]: Dose-dependent effect
SMILES: COc1cc(O)c(C(=O)/C=C/c2cccc(OC)c2OC)c(OC)c1
- Activity [2]: 96%
- Activity [3]: Dose-dependent effect
- Activity [4]: Dose-dependent effect
- Activity [5]: inactive
- Activity [6]: inactive
- Activity [7]: 23%
- Activity [8]: inactive
- Activity [10]: inactive
- Activity [12]: 92%
- Activity [14]: 70%
- Activity [15]: inactive
- Activity [17]: 59%
- Activity [21]: Active
- Activity [26]: Dose-dependent effect
- Activity [27]: inactive

- inhibition [1]: inactive
SMILES: COc1cc(O)c2c(c1OC)O[C@H](c1ccccc1)CC2=O

- inhibition [1]: inactive
SMILES: COC[C@H](Cc1ccc(OC)c(OC)c1)[C@H](COC)Cc1ccc(OC)c(OC)c1

- inhibition [1]: Active
SMILES: COc1cc(/C=C/C(=O)c2cc(OC)c(OC)c(OC)c2)cc(OC)c1OC

- inhibition [1]: Active
SMILES: COc1ccc(/C=C/C(=O)c2cc(OC)c(OC)c(OC)c2)cc1OC

- inhibition [1]: Active
SMILES: COc1cccc(/C=C/C(=O)c2cc(OC)c(OC)c(OC)c2)c1OC

SMILES: COc1ccc(/C=C2/COc3cc(O)ccc3C2=O)cc1
- inhibition [1]: Active

- inhibition [1]: inactive
SMILES: C[C@H]1O[C@H](Oc2cc(O)c3c(=O)c(O[C@H]4O[C@H](C)[C@@H](O[C@H]5O[C@H](CO)[C@@H](O)[C@H](O)[C@H]5O)[C@H](O)[C@@H]4O)c(-c4ccc(O)cc4)oc3c2)[C@@H](O)[C@@H](O)[C@@H]1O

- inhibition [1]: inactive
SMILES: COc1cc(OC)c2c(c1)O[C@H](c1ccccc1)CC2=O

- inhibition [1]: inactive
SMILES: COc1c(O)cc(C(=O)O)cc1O
